# Experimental data reported in US9567291B2, “N-(4-(bis(4-(dimethylamino)phenyl)methylene)-8-(dimethylamino)” (EMORY UNIVERSITY, priority 2013, dated 2017).
# Entries after “also recorded” stand apart in the source; their conditions may differ.
# Key:
# Assay type in all cases: cell-based
# A375 cells = assay: cell proliferation assay, A375 cells; conditions: 24 h treatment; for inhibition of cell proliferation: cell count, FIG. 4A/5A
# Method: (§1) FIG. 1 illustrates the cell proliferation assay procedure. 5×10^4 cells were seeded in 24-well plates and incubated for 24 h. Stock solutions of PSB, PSMB, and IB were diluted into 5 mL of appropriate media samples for each treatment concentration (1 μM, 2.5 μM, etc). One mL was then added to each of the four wells per treatment concentration. Cells were incubated for 24 h in standard conditions. Cells were then washed with Phosphate Buffered Saline (Sigma Aldrich) and harvested by trypsinization (0.5 mL/well). Cells were incubated for 10 minutes in standard conditions and diluted into a 10 mL isotone solution. The isotone solution was subsequently placed into a cell counter, providing a count that represented 1/20 the number of cells per well.
# (§2) A375 cells were grown in high-glucose Dulbecco's modified Eagle's medium (DMEM) (Mediatech) supplemented with fetal bovine serum (FBS) and penicillin/streptomycin (Sigma-Aldrich) in standard conditions (37° C., 5% CO2, humidified atmosphere). LM36 and LM36R cells were grown in cultured in RPMI medium supplemented with 10% FBS, L-glutamine and antibiotics in standard conditions (37° C., 5% CO2, humidified atmosphere).
# LM36R cells = assay: cell proliferation assay, LM36R cells; conditions: 24 h treatment
# Method: as §1, §2
# LM36 cells = assay: cell proliferation assay, LM36 cells; conditions: 24 h treatment
# Method: as §1, §2
Substance,antiproliferative potency compared to IB (A375 cells),inhibition of cell proliferation (A375 cells),antiproliferative potency compared to IB (LM36R cells),"inhibition of cell proliferation (LM36R cells; cell count, FIG. 4B/5B)",antiproliferative potency compared to IB (LM36 cells),"inhibition of cell proliferation (LM36 cells; cell count, FIG. 4C/5C)"
N-(4-(bis(4-(dimethylamino)phenyl)methylene)-8-(dimethylamino)naphthalen-1(4H)-ylidene)-N-methylmethanaminium [PSMB],greater antiproliferative effects than IB; also recorded: more potent inhibition than IB,anti-proliferative effects that operate in a concentration-dependent fashion,greater antiproliferative effects than IB; also recorded: more potent inhibition than IB,anti-proliferative effects that operate in a concentration-dependent fashion,greater antiproliferative effects than IB; also recorded: more potent inhibition than IB,anti-proliferative effects that operate in a concentration-dependent fashion
N-(4-(bis(4-(diethylamino)phenyl)methylene)-8-(dimethylamino) naphthalen-1(4H)-ylidene)-N-methylmethanaminium [PSB],only exhibits greater antiproliferative effects in A375 cells; also recorded: more potent than IB,inhibits A375 proliferation in a concentration-dependent fashion,Such a trend is not observed,,Such a trend is not observed,
